Data: patent US20170042888A1, “GLYT1 INHIBITORS FOR USE IN THE TREATMENT OF HEMATOLOGICAL DISORDERS” (Hoffmann-La Roche Inc., priority 2014, published 2017)

Experiments:
female Wistar rats [1] = assay: 8-week dietary admix study in female Wistar rats, hematological parameters in peripheral blood (SYSMEX XT analyser); type: in vivo, rat
Description: FIG. 1 Effect of 4-(3-fluoro-5-trifluoromethyl-pyridin-2-yl)-piperazin-1-yl]-[5-methanesulfonyl-2-((S)-2,2,2-trifluoro-1-methyl-ethoxy)-phenyl]-methanone on mean group hemoglobin in female rats (8-week study)
4-(3-Fluoro-5-trifluoromethyl-pyridin-2-yl)-piperazin-1-yl]-[5-methanesulfonyl-2-((S)-2,2,2-trifluoro-1-methyl-ethoxy)-phenyl]-methanone was administered daily for 8-weeks by dietary admix to female Wistar rats to achieve doses of 1, 3, and 8 mg/kg/day, followed by a 4-week recovery period off treatment. The control group received standard diet only during the whole study period. At various time points during the study hematological parameters including Hb were investigated in peripheral blood using a SYSMEX XT analyser. Data represent group mean values and error bars indicate standard deviation (SD).
FIG. 3 Effect of 4-(3-fluoro-5-trifluoromethyl-pyridin-2-yl)-piperazin-1-yl]-[5-methanesulfonyl-2-((S)-2,2,2-trifluoro-1-methyl-ethoxy)-phenyl]-methanone on mean group MCH in female rats (8-week study)
4-(3-fluoro-5-trifluoromethyl-pyridin-2-yl)-piperazin-1-yl]-[5-methanesulfonyl-2-((S)-2,2,2-trifluoro-1-methyl-ethoxy)-phenyl]-methanone was administered daily for 8-weeks by dietary admix to female Wistar rats to achieve doses of 1, 3, and 8 mg/kg/day followed by a 4-week recovery period off treatment. The control group received standard diet during the whole study period. At various time points during the study hematological parameters including MCH were investigated in peripheral blood using a SYSMEX XT analyser. Data represent group mean values and error bars indicate the standard deviation (SD).

[2] = test system: soluble transferrin receptor (sTfrR); assay: 36-week oral study in cynomolgus monkeys, sTfR in peripheral blood (SISCAPA assay with mass spectrometry); type: in vivo, cynomolgus monkey; conditions: cynomolgus monkeys, 1, 3 and 9 mg/kg/day by capsule via oral gavage for 36 weeks (FIG. 5)
Description: FIG. 5 Effect of 4-(3-fluoro-5-trifluoromethyl-pyridin-2-yl)-piperazin-1-yl]-[5-methanesulfonyl-2-((S)-2,2,2-trifluoro-1-methyl-ethoxy)-phenyl]-methanone on sTrfR in female cynomolgus monkeys
4-(3-fluoro-5-trifluoromethyl-pyridin-2-yl)-piperazin-1-yl]-[5-methanesulfonyl-2-((S)-2,2,2-trifluoro-1-methyl-ethoxy)-phenyl]-methanone was administered by capsule via oral gavage to 4 male and 4 female cynomolgus monkeys per group at dose levels of control vehicle, 1, 3 and 9 mg/kg/day for 36 weeks. An additional 2 animals per sex from the control and high-dose group were maintained for an additional 13-week recovery period for assessment of reversibility of any findings. Measurement of sTfR was performed on various occasions during the study in peripheral blood samples. Measurements were done using a SISCAPA Assay Technologies Inc. developed assay, designed to identify the soluble fragment of the human transferrin receptor (sTfR) in serum, plasma and blood using the SISCAPA® workflow in combination with mass spectrometry. The human assay was adapted and validated for cynomolgus sTf measurements. Data shown represent group mean values, error bars indicate the standard deviation.

female Wistar rats [3] = assay: 26-week oral gavage study in female Wistar rats, hematological parameters in peripheral blood (Bayer ADVIA 120); type: in vivo, rat
Description: FIG. 2 Effect of [5-Methanesulfonyl-2-((S)-2,2,2-trifluoro-1-methyl-ethoxy) phenyl]-(3-trifluoromethyl-5,7-dihydro-pyrrolo[3,4-b]pyridin-6-yl)-methanone on mean group hemoglobin in female rats (26-week study)
(§1) [5-Methanesulfonyl-2-((S)-2,2,2-trifluoro-1-methyl-ethoxy)phenyl]-(3-trifluoromethyl-5,7-dihydro-pyrrolo[3,4-b]pyridin-6-yl)-methanone was administered daily for 26-weeks by oral gavage to 20 females Wistar rats per group at doses of 2, 6 and 12 mg/kg/day, followed by a 4-week recovery period off treatment for which 6 additional females where allocated per dose group. The control group was treated with a vehicle control during the dosing period. At various time points during the study hematological parameters including Hb were investigated in peripheral blood using the Bayer, ADVIA 120 hematology analyser. Data represent group mean values and error bars indicate the standard deviation (SD).
FIG. 4 Effect of [5-Methanesulfonyl-2-((S)-2,2,2-trifluoro-1-methyl-ethoxy)phenyl](3-trifluoromethyl-5,7-dihydro-pyrrolo[3,4-b]pyridin-6-yl)-methanone on mean group MCH in female rats (26-week study)
as §1, with “[5-Methanesulfonyl-2-((S)-2,2,2-trifluoro-1-methyl-ethoxy)phenyl](3-trifluoromethyl-5,7-dihydro-pyrrolo[3,4-b]pyridin-6-yl)-methanone” for “[5-Methanesulfonyl-2-((S)-2,2,2-trifluoro-1-methyl-ethoxy)phenyl]-(3-trifluoromethyl-5,7-dihydro-pyrrolo[3,4-b]pyridin-6-yl)-methanone”, “haematology” for “hematology”

Compound	overall maximal decrease in total hemoglobin concentration (female Wistar rats [1]; female Wistar rats, 1, 3 and 8 mg/kg/day by dietary admix for 8 weeks)	induced erythropoiesis type (female Wistar rats [1]; female Wistar rats, 1, 3 and 8 mg/kg/day by dietary admix for 8 weeks, all dose levels)	total hemoglobin concentration (female Wistar rats [1]; female Wistar rats, 1, 3 and 8 mg/kg/day by dietary admix for 8 weeks, all dose levels (FIG. 1))	intracellular hemoglobin, MCH (female Wistar rats [1]; female Wistar rats, 1, 3 and 8 mg/kg/day by dietary admix for 8 weeks, all dose levels (FIG. 3))	reversibility of the hemoglobin effect (female Wistar rats [1]; female Wistar rats, 4-week recovery period off treatment after 8 weeks)	soluble transferrin receptor (sTfrR) in peripheral blood [2]	overall maximal decrease in total hemoglobin concentration (female Wistar rats [3]; female Wistar rats, 2, 6 and 12 mg/kg/day by oral gavage for 26 weeks)	induced erythropoiesis type (female Wistar rats [3]; female Wistar rats, 2, 6 and 12 mg/kg/day by oral gavage for 26 weeks, all dose levels)	total hemoglobin concentration (female Wistar rats [3]; female Wistar rats, 2, 6 and 12 mg/kg/day by oral gavage for 26 weeks, all dose levels (FIG. 2))	intracellular hemoglobin, MCH (female Wistar rats [3]; female Wistar rats, 2, 6 and 12 mg/kg/day by oral gavage for 26 weeks, all dose levels (FIG. 4))	reversibility of the hemoglobin effect (female Wistar rats [3]; female Wistar rats, 4-week recovery period off treatment after 26 weeks)
C[C@H](Oc1ccc(S(C)(=O)=O)cc1C(=O)N1CCN(c2ncc(C(F)(F)F)cc2F)CC1)C(F)(F)F [[4-(3-fluoro-5-trifluoromethyl-pyridin-2-yl)-piperazin-1-yl]-[5-methanesulfonyl-2-((S)-2,2,2-trifluoro-1-methyl-ethoxy)-phenyl]-methanone]	≤ 20%	microcytic, hypochromic erythropoiesis	reduction	reduction	reversible	dose-dependent decrease	–	–	–	–	–
C[C@H](Oc1ccc(S(C)(=O)=O)cc1C(=O)N1Cc2cc(C(F)(F)F)cnc2C1)C(F)(F)F [[5-methanesulfonyl-2-((S)-2,2,2-trifluoro-1-methyl-ethoxy)-phenyl]-(3-trifluoromethyl-5,7-dihydro-pyrrolo[3,4-b]pyridin-6-yl)-methanone]	–	–	–	–	–	–	≤ 20%	microcytic, hypochromic erythropoiesis	reduction	reduction	reversible
